Assay [1] addresses T1, SALL4 (Homo sapiens, UniProt Q96SW2+Q9UJQ4).
T1 construct: endogenous in cells; host or cells: NCCIT (HiBiT knock-in)
Put plainly: HiBiT degradation assay, NCCIT/SALL4-HiBiT KI cells. The assay is classed as cell-based. As to conditions: N ≥ 3; for EC50: degradation, 2 hr incubation, top conc 10 uM; for SALL4 Ymin: depth of degradation (100% = no reduction, 0% = complete degradation), 2 hr. The procedure: (§1) Section 6: Assay Protocols
(§2) Fluorescence Resonance Energy Transfer-Based NSD@ PWWP Cereblon Binding Assay. […]
(§3) Compounds for testing were spotted into a 1536 well plate (Greiner Cat#782075). CRBN and Tracer solution were incubated in compound wells for 20 minutes. Detection mix containing Anti6xHis Tb Crytate (CisBio Cat#61HI2TLF) was then added to assay wells for a final 0.5x assay concentration of detection antibody (stock is provided at 400x). Plates were incubated for 30 minutes before being read on Pherastar FSX plate reader using TR-FRET module (Excitation 340nm, Emssion 615/665nm). ePL and HiBiT degradation assays
(§4) DF15 cells overexpressing ePL tagged GSPT1 (DF15/GSPT1 ePL OE) was used to monitor the degradation of GSPT1 induced by experimental compounds. MDS-L cells overexpressing ePL tagged CK1α and GSPT1G575N (MDS-L/CK1α ePL OE_ GSPT1G575N OE) was used to monitor the degradation of CK1α induced by experimental compounds. NCCIT cells with HiBiT tag knocked in at the c-terminus of SALL4 (NCCIT/SALL4-HiBiT KI) was used to monitor the degradation of SALL4 induced by experimental compounds. DF15 cells with HiBiT tag knocked in at the n-terminus of IKZF3 (DF15/HiBiT-IKZF3 KI) was used to monitor the degradation of AIOLOS (IKZF3) induced by experimental compounds. […]
(§5) The cell culture medium recipes, seeding densities and compound incubation time with cells are […]
(§6) Ta r g e t Cell line Cell culture medium Seeding Compound
(§7) (HI) FBS, 1mM sodium pyruvate, 25mM Hepes, 0.1% pluronic acid,
(§8) GSPT1G575N OE ng/mL of human recombinant IL3 […]
(§9) sodium pyruvate, 25mM Hepes, 0.1% pluronic acid, 1X NEAA
(§10) For all degradation assays, compounds were pre-spotted in a 153 6 well plate (Corning 3727) starting at 10uM with 3-fold serial dilution down 11 points in replicates using an Echo 650 series acoustic liquid handler. 5uL/well cells were seeded in the assay ready plate at the density and in […]
(§11) The final DMSO concentration in the cell culture was 0.25%. The plates were equilibrated at room temperature for 30 minutes before putting into a 37 °C CO2 incubator. After appropriate incubation period, plates were retrieved from the incubator and set at room temperature to equilibrate for 30 minutes, before adding ePL or HiBiT detection reagent. For ePL detection, the pre-prepared mixture of EA reagent, lysis buffer, and substrate reagent at ratio 1:1:4 from the DiscoverX InCELL Detection Kit (Eurofins 96-0079L) according to the manufacturer ’s recommendation was added 3ul/well into the plate. Plates were incubated in the dark for 1hr at room temperature before reading using a BMG PheraStar luminescence reader. For HiBiT detection, Nano-Glo HiBiT Lytic Reagent (Promega, N3050) prepared according to the manufacturer ’s recommendation was added 3 uL/well into the plate. Plates were incubated 30 minutes at room temperature in the dark before reading using a BMG PheraStar […]
(§12) To determine EC50 values for degradation, a four parameter logistic model (Sigmoidal Dose-Response Model) (FIT= (A+((B-A)/1+((C/x)^D)))) C is the inflection point (EC50), D is […] , A and B are the low and high limits of the fit respectively) was used to determine the compound’s EC50 value, which is the half maximum effective concentration. In the degradation assays, the Yconst of each compound was calculated by normalizing the lowest point of the fitted curve to the media only control, which is 0%, and the cells treated with DMSO control, which is 100%. All degradation curves were processed and evaluated using Dotmatics.
(§13) Section 7: Biological Data Tables
(In general: HiBiT is a short tag that completes a luciferase, so light tracks the accessible tagged protein.)

Assay [2] has as its target T2, GSPT1 (Homo sapiens, UniProt P15170+Q96SW2).
T2 construct: expressed in transfected cells; host or cells: DF15
Put plainly: ePL degradation assay, DF15/GSPT1 ePL OE cells. Particulars: N ≥ 3; for EC50: degradation, 20 hr incubation, top conc 10 uM; for GSPT1 Ymin: depth of degradation (100% = no reduction, 0% = complete degradation), 20 hr. The assay is classed as cell-based. On the procedure: as §1, §2, §3, §4, §5, §6, §7, §8, §9, §10, §11, §12, §13

Assay [3] has as its target T3, IKZF3 (Aiolos) (Homo sapiens, UniProt Q96SW2+Q9UKT9).
T3 construct: endogenous in cells; host or cells: DF15 (HiBiT knock-in)
Put plainly: HiBiT degradation assay, DF15/HiBiT-IKZF3 KI cells. It counts as cell-based. As to conditions: N ≥ 3; for EC50: degradation, 4 hr incubation, top conc 10 uM; for IKZF3 Ymin: depth of degradation (100% = no reduction of protein level, 0% = complete degradation), 4 hr. The procedure:
as §1, §2, §3, §4, §5, §6, §7, §8, §9, §10, §11, §12, §13

The target of assay [4] is T4, CRBN (Homo sapiens, UniProt Q96SW2).
T4 construct: (CRBN a.a. 1−442, DDB1 a.a); made in house
Put plainly: Fluorescence Resonance Energy Transfer-Based Cereblon Binding Assay (CRBN HTRF). Particulars: 0.5 nM 6×His-CRBN-DDB1, 20 nM tracer CC0782985, TR-FRET. The procedure:
as §1, §2, §3, §4

Assay [5] concerns the target T5, CK1α (Homo sapiens, UniProt P48729+Q96SW2).
T5 construct: expressed in transfected cells; host or cells: MDS-L
Put plainly: ePL degradation assay, MDS-L/CK1α ePL OE_GSPT1G575N OE cells. It counts as cell-based. Particulars: for EC50: degradation, 4 hr incubation, top conc 10 uM, N ≥ 3, read-out: CK1a EC50; for CK1a Ymin: depth of degradation (100% = no reduction, 0% = complete degradation), 4 hr, N ≥ 3. On the procedure:
as §1, §2, §3, §4, §5, §6, §7, §8, §9, §10, §11, §12, §13

Values joined by “and” are separate entries in the source; they are usually repeats but may differ in a detail not shown here. Identical values can stand only once.

T5 sequence (P48729 whole entry): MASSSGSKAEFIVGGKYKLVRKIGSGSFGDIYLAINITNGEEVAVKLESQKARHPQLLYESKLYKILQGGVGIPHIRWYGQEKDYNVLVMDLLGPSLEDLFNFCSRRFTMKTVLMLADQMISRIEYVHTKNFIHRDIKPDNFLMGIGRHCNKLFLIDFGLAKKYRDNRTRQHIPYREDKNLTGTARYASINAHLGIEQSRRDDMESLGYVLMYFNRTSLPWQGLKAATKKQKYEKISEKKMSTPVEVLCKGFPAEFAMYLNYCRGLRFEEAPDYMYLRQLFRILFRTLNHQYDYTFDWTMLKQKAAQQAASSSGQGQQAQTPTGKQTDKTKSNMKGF
T5 sequence (Q96SW2 whole entry): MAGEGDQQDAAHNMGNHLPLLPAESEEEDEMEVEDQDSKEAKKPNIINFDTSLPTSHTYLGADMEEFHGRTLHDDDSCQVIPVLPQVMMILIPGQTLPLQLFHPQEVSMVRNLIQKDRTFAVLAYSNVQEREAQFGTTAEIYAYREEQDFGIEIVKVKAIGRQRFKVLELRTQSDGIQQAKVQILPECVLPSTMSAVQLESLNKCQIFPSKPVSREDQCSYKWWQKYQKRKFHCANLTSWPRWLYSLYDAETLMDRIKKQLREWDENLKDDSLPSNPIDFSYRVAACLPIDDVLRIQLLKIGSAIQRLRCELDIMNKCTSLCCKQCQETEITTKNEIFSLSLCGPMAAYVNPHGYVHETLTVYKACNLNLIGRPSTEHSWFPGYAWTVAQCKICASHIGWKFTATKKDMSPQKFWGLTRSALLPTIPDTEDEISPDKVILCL
T5 sequence (Q16531 whole entry partner): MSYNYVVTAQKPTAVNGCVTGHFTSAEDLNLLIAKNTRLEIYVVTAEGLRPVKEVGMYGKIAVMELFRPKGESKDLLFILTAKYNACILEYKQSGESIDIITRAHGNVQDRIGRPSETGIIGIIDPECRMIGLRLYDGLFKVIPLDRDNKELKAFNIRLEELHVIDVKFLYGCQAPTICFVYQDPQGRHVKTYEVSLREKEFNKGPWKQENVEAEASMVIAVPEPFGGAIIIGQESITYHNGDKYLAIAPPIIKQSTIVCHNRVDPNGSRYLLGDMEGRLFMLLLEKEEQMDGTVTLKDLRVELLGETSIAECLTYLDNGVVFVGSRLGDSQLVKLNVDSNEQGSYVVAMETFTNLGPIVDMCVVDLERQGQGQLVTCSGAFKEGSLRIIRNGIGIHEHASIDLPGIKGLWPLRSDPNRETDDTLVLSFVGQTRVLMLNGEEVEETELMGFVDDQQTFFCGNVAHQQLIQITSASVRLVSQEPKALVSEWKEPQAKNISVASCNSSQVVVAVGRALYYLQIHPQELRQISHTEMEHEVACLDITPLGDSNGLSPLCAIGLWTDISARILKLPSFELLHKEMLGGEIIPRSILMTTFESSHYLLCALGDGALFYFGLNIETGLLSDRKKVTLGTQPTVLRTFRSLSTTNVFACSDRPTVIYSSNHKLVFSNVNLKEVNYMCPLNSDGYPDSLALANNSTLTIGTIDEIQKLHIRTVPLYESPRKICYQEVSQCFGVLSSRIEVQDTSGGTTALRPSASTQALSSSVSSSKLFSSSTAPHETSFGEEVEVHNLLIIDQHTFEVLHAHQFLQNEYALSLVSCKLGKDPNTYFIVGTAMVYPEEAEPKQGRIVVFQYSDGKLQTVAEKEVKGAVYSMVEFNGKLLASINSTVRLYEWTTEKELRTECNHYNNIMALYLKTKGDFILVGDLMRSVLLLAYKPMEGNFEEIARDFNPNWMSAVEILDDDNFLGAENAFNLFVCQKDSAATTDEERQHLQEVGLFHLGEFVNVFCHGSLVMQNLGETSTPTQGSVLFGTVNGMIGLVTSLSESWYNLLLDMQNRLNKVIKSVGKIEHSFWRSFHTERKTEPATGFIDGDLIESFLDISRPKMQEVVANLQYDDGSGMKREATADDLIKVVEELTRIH
T4 sequence (Q96SW2 whole entry): as the sequence (Q96SW2 whole entry) above
T4 sequence (Q16531 whole entry partner): as the sequence (Q16531 whole entry partner) above
T3 sequence (Q9UKT9 whole entry): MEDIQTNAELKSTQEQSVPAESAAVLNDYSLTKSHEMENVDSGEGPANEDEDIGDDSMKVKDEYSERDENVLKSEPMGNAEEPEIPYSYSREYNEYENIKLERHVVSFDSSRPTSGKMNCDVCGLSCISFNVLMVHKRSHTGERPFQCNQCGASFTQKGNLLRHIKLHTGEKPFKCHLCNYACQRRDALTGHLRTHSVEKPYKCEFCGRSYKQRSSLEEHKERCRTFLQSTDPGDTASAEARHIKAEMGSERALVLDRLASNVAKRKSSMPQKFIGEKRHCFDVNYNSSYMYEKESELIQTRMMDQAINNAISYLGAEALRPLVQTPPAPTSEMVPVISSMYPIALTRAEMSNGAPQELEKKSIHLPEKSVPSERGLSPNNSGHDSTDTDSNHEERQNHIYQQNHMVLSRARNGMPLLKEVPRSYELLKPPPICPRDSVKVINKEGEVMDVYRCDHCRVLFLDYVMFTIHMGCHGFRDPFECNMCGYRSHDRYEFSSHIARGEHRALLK
T3 sequence (Q96SW2 whole entry): as the sequence (Q96SW2 whole entry) above
T3 sequence (Q16531 whole entry partner): as the sequence (Q16531 whole entry partner) above
T1 sequence (Q9UJQ4 whole entry): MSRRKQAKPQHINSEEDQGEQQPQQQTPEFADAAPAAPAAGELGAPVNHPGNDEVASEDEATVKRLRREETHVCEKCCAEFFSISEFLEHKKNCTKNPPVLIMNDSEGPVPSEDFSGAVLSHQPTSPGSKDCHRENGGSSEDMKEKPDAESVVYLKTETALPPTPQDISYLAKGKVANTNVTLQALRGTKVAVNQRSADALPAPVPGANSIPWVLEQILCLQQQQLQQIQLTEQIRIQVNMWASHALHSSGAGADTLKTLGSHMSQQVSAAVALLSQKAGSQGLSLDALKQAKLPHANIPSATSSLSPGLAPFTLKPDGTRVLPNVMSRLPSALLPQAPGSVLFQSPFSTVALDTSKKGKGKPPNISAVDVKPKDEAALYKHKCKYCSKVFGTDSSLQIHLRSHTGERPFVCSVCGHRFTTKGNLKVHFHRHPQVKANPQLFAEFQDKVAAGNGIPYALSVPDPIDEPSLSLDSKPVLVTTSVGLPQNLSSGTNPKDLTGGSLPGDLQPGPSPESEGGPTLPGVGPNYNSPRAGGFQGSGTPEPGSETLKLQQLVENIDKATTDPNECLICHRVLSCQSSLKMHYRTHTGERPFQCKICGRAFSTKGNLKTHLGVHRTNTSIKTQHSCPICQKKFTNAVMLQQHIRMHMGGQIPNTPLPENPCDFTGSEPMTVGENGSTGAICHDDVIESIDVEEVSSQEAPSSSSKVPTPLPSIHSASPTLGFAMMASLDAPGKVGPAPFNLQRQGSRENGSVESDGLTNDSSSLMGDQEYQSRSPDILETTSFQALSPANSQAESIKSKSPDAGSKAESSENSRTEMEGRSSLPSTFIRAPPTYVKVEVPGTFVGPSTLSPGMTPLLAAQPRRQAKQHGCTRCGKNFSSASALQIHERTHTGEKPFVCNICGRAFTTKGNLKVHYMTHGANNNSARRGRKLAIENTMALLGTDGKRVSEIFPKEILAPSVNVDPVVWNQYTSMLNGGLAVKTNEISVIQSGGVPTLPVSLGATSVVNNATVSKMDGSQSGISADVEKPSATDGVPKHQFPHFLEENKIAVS
T1 sequence (Q96SW2 whole entry): as the sequence (Q96SW2 whole entry) above
T1 sequence (Q16531 whole entry partner): as the sequence (Q16531 whole entry partner) above
T2 sequence (P15170 1-637 isoform P15170-3): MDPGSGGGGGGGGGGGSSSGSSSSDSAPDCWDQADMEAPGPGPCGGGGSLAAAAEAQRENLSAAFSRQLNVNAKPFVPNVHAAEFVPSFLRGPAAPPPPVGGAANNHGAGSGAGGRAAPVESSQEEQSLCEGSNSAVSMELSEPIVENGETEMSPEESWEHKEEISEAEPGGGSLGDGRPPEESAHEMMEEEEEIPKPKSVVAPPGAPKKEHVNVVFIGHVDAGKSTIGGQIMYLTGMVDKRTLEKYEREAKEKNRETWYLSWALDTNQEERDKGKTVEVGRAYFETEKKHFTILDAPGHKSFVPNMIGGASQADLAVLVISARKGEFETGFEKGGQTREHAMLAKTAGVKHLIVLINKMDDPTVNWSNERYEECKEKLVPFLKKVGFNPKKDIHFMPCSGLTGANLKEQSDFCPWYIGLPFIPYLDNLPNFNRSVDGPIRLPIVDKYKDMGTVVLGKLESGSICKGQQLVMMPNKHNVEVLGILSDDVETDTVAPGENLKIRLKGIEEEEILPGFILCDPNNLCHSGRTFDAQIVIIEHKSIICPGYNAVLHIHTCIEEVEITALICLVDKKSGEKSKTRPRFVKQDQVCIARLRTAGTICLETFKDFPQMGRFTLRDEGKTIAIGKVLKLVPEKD
T2 sequence (Q96SW2 whole entry): as the sequence (Q96SW2 whole entry) above
T2 sequence (Q16531 whole entry partner): as the sequence (Q16531 whole entry partner) above

A word on the EC50: it is the concentration at which the effect is half-maximal. By IC50 is commonly meant the point on the concentration scale where inhibition reaches its midpoint. A low value points to higher potency. Turning to `O=C1CCC(N2C(=O)c3cccc(C4=C[C@]4(C(=O)OCC(Cl)(Cl)Cl)c4ccc(Br)cc4)c3C2=O)C(=O)N1` (some centres unmarked) [Compound 20a], in assay [1], the EC50 is 0.56 ± 0.27 µM and the “SALL4 Ymin” value came out at 34 ± 7.4%. For the same compound, in assay [2], the EC50 was 4.3 ± 1.9 µM and the “GSPT1 Ymin” value came to 12 ± 13%. Besides, in assay [3], the EC50 stood at 0.9 ± 0.18 µM and the “IKZF3 Ymin” value was 40 ± 2.2%. The same compound came in with a concentration for half-maximal inhibition (IC50) in assay [4] of 4.6 µM. Moreover, in assay [5], the EC50 was determined as 1.5 ± 0.94 µM and the “CK1a Ymin” value is recorded as 56 ± 14%.

As for `O=C1CCC(N2C(=O)c3ccc(C4=C[C@]4(C(=O)OCC(Cl)(Cl)Cl)c4ccc(Br)cc4)cc3C2=O)C(=O)N1` (some centres unmarked) [Compound 22a], the EC50 in assay [1] worked out at 3.6 ± 0.74 µM; in assay [2] it was 1.1 ± 0.69 µM; in assay [3], 1.3 ± 2.1 µM; in assay [5], 1.2 ± 1.2 µM. Besides, the “SALL4 Ymin” value in assay [1] is given as 67 ± 7.8%. In addition, in assay [3], the “IKZF3 Ymin” value came to 73 ± 6.2%. This compound had an IC50 in assay [4] of 5.7 µM. In assay [5], the “CK1a Ymin” value turned out to be 60 ± 26%.

As for `O=C1CCC(N2C(=O)c3ccc([C@H]4C[C@@]4(C(=O)OCC(Cl)(Cl)Cl)c4ccc(Br)cc4)cc3C2=O)C(=O)N1` (some centres unmarked) [Compound 16b], in assay [1], it took 0.41 ± 0.16 µM to reach a half-maximal effect (EC50) and the “SALL4 Ymin” value is given as 60 ± 6.1%. Further, the EC50 in assay [2] is > 10 µM and 3.1 µM. Also, in assay [3], the EC50 was above 10 µM and the “IKZF3 Ymin” value is 97 ± 3.6%. In assay [4], this compound displayed an IC50 above 10 µM. In assay [5], the EC50 was above 10 µM and the “CK1a Ymin” value was determined as 85 ± 4.1%.

As for `O=C1CCC(N2Cc3cc(C4=C[C@@]4(C(=O)OCC(Cl)(Cl)Cl)c4ccc(Br)cc4)ccc3C2=O)C(=O)N1` (some centres unmarked) [Compound 21b], in assay [1], the EC50 was 0.075 ± 0.05 µM and the “SALL4 Ymin” value is 68 ± 2.1%. Further, in assay [2], the EC50 was determined as 3.3 ± 3 µM and the “GSPT1 Ymin” value is on record as 7.7 ± 4.7%. Also, in assay [3], the EC50 worked out at 4.8 ± 2.6 µM and the “IKZF3 Ymin” value is given as 79 ± 6.4%. The same compound displayed an IC50 in assay [4] of 0.8 µM. In addition, in assay [5], the EC50 came to 0.25 ± 0.37 µM and the “CK1a Ymin” value was 57 ± 8.0%.

Turning to `O=C1CCC(N2Cc3c(cccc3C3=C[C@]3(C(=O)OCC(Cl)(Cl)Cl)c3ccc(Br)cc3)C2=O)C(=O)N1` (some centres unmarked) [Compound 19a], the half-maximal effective concentration (EC50) in assay [1] was found to be 0.019 ± 0.01 µM; in assay [2] it was 0.17 ± 0.13 µM; in assay [3] it was 0.012 µM; in assay [5], 0.17 ± 0.18 µM. For the same compound, the “SALL4 Ymin” value in assay [1] was determined as 23 ± 4.5%. Besides, the “GSPT1 Ymin” value in assay [2] is 64 ± 8.7%. This compound gave an IC50 in assay [4] of 0.16 µM. In addition, the “CK1a Ymin” value in assay [5] came to 64 ± 4.3%.

With `O=C1CCC(N2Cc3cc(C4=C[C@]4(C(=O)OCC(Cl)(Cl)Cl)c4ccc(Br)cc4)ccc3C2=O)C(=O)N1` (some centres unmarked) [Compound 21a], in assay [1], the EC50 was above 10 µM and the “SALL4 Ymin” value is on record as 89 ± 4.2%. For the same compound, in assay [2], the EC50 is above 10 µM and the “GSPT1 Ymin” value is reported as 81 ± 17%. Also, in assay [3], the EC50 is above 10 µM and the “IKZF3 Ymin” value was determined as 95 ± 7.6%. In assay [4], this compound returned a half-maximal inhibitory concentration (IC50) of 0.59 µM. In assay [5], the EC50 is above 10 µM and the “CK1a Ymin” value is recorded as 89 ± 9.3%.

Consider `O=C1CCC(N2Cc3cccc([C@H]4C[C@@]4(C(=O)OCC(Cl)(Cl)Cl)c4ccc(Br)cc4)c3C2=O)C(=O)N1` (some centres unmarked) [Compound 18b], for which, in assay [1], the EC50 was above 10 µM and the “SALL4 Ymin” value is given as 96 ± 5.4%. Moreover, in assay [2], the EC50 was above 10 µM and the “GSPT1 Ymin” value stood at 83 ± 15%. Moreover, in assay [3], the EC50 is above 10 µM and the “IKZF3 Ymin” value is recorded as 96 ± 5.7%. Besides, the IC50 in assay [4] was above 10 µM. In assay [5], the EC50 is above 10 µM and the “CK1a Ymin” value worked out at 91 ± 7.1%.

Turning to `O=C1CCC(N2Cc3cccc([C@@H]4C[C@]4(C(=O)OCC(Cl)(Cl)Cl)c4ccc(Br)cc4)c3C2=O)C(=O)N1` (some centres unmarked) [Compound 18a], in assay [1], the EC50 is above 10 µM and the “SALL4 Ymin” value is 93 ± 3.8%. Besides, in assay [2], the EC50 is above 10 µM and the “GSPT1 Ymin” value was 87 ± 6.5%. Further, in assay [3], the EC50 was above 10 µM and the “IKZF3 Ymin” value came to 91 ± 0.6%. Further, the half-maximal inhibitory concentration (IC50) in assay [4] was above 10 µM. In addition, in assay [5], the EC50 was above 10 µM and the “CK1a Ymin” value came out at 89 ± 1.7%.

As to `O=C1CCC(N2Cc3cccc(C4=C[C@]4(C(=O)OCC(Cl)(Cl)Cl)c4ccc(Br)cc4)c3C2=O)C(=O)N1` (some centres unmarked) [Compound 24a], in assay [1], the EC50 was above 10 µM and the “SALL4 Ymin” value came out at 95 ± 5.0%. Moreover, in assay [2], the EC50 was above 10 µM and the “GSPT1 Ymin” value is recorded as 85 ± 24%. Besides, in assay [3], the EC50 was above 10 µM and the “IKZF3 Ymin” value is listed as 97 ± 0.58%. The same compound registered a half-maximal inhibitory concentration (IC50) in assay [4] of 2.4 µM. In assay [5], the EC50 was above 10 µM and the “CK1a Ymin” value is given as 96 ± 12%.

Consider `O=C1CCC(N2Cc3ccc(C4=C[C@@]4(C(=O)OCC(Cl)(Cl)Cl)c4ccc(Br)cc4)cc3C2=O)C(=O)N1` (some centres unmarked) [Compound 23b], for which, in assay [1], the EC50 is above 10 µM and the “SALL4 Ymin” value is listed as 91 ± 10%. Besides, in assay [2], the EC50 is above 10 µM and the “GSPT1 Ymin” value is reported as 88 ± 10%. In assay [3], the EC50 is above 10 µM and the “IKZF3 Ymin” value stood at 81 ± 4.6%. In assay [4], this compound gave an IC50 of 1.7 µM. In assay [5], the EC50 is above 10 µM and the “CK1a Ymin” value turned out to be 95 ± 6.0%.

On to `O=C1CCC(N2C(=O)c3ccc([C@@H]4C[C@]4(C(=O)OCC(Cl)(Cl)Cl)c4ccc(Br)cc4)cc3C2=O)C(=O)N1` (some centres unmarked) [Compound 16a], for which the EC50 in assay [1], in assay [2], in assay [3] and in assay [5] was above 10 µM throughout. In addition, the “SALL4 Ymin” value in assay [1] was 92 ± 8.2%. The “IKZF3 Ymin” value in assay [3] is recorded as 94 ± 8.3%. Besides, the IC50 in assay [4] is 5.3 µM. The “CK1a Ymin” value in assay [5] was 94 ± 9.9%.
